Laboratory results reported in article PMC9068721, “Evaluation of MxOy/fucoidan hybrid system and their application in lipase immobilization process” (Scientific Reports, 2022).

Test system: T1, lipase from Aspergillus niger (LAN)
T1 construct: gene lipA; commercial Sigma-Aldrich lipase preparation from Aspergillus niger, free (not immobilized)
Experiment: p-nitrophenol release at […] nm, Hanes-Woolf plot
Format: biochemical
Conditions: free enzyme, 30 °C, 2 min, 1000 rpm; substrate solution range printed as 0.005–1.5 M; apparent

- Km: 580 ± 20 µM
SMILES: CCCCCCCCCCCCCCCC(=O)Oc1ccc([N+](=O)[O-])cc1 [p-nitrophenyl palmitate]
